Assay results published in the supplement of paper PMC10307832.

Legend:
Experiment in all cases: relative viability (nuclei count vs DMSO), 5 days (fraction); higher = more cells survive
Seliciclib + Pemetrexed = compound: CC[C@H](CO)Nc1nc(NCc2ccccc2)c2ncn(C(C)C)c2n1 [Seliciclib] + Nc1nc2[nH]cc(CCc3ccc(C(=O)N[C@@H](CCC(=O)O)C(=O)O)cc3)c2c(=O)[nH]1 [Pemetrexed] (partner 0.2 µM)
How it was run: (§1)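 One day after seeding in 1536-well plates, lung cancer cell lines were dosed by pin tool. Dosing was either single-drug or a fixed anchor-drug dose plus five library-drug doses (not always all listed) in √10 steps. After 5 days, nuclei were stained in one fix-and-stain step and counted on 4× images, and relative viability is the nuclei count of treated wells over that of vehicle wells, given as the median of duplicate plates.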

Seliciclib + Alpelisib = compound: CC[C@H](CO)Nc1nc(NCc2ccccc2)c2ncn(C(C)C)c2n1 [Seliciclib] + Cc1nc(NC(=O)N2CCC[C@H]2C(N)=O)sc1-c1ccnc(C(C)(C)C(F)(F)F)c1 [Alpelisib] (partner 2 µM)
How it was run: as §1

Seliciclib + Foretinib = compound: CC[C@H](CO)Nc1nc(NCc2ccccc2)c2ncn(C(C)C)c2n1 [Seliciclib] + COc1cc2c(Oc3ccc(NC(=O)C4(C(=O)Nc5ccc(F)cc5)CC4)cc3F)ccnc2cc1OCCCN1CCOCC1 [Foretinib] (partner 0.25 µM)
How it was run: as §1

Seliciclib + Olaparib = compound: CC[C@H](CO)Nc1nc(NCc2ccccc2)c2ncn(C(C)C)c2n1 [Seliciclib] + O=C(c1cc(Cc2n[nH]c(=O)c3ccccc23)ccc1F)N1CCN(C(=O)C2CC2)CC1 [Olaparib] (partner 8 µM)
How it was run: as §1

Cell Line	relative viability (Seliciclib + Pemetrexed; first compound 0.08 µM)	relative viability (Seliciclib + Pemetrexed; first compound 0.253 µM)	relative viability (Seliciclib + Pemetrexed; first compound 0.8 µM)	relative viability (Seliciclib + Pemetrexed; first compound 2.53 µM)	relative viability (Seliciclib + Pemetrexed; first compound 8 µM)	relative viability (Seliciclib + Alpelisib; first compound 0.08 µM)	relative viability (Seliciclib + Alpelisib; first compound 0.253 µM)	relative viability (Seliciclib + Alpelisib; first compound 0.8 µM)	relative viability (Seliciclib + Alpelisib; first compound 2.53 µM)	relative viability (Seliciclib + Alpelisib; first compound 8 µM)	relative viability (Seliciclib + Foretinib; first compound 0.08 µM)	relative viability (Seliciclib + Foretinib; first compound 0.253 µM)	relative viability (Seliciclib + Foretinib; first compound 0.8 µM)	relative viability (Seliciclib + Foretinib; first compound 2.53 µM)	relative viability (Seliciclib + Foretinib; first compound 8 µM)	relative viability (Seliciclib + Olaparib; first compound 0.08 µM)	relative viability (Seliciclib + Olaparib; first compound 0.253 µM)	relative viability (Seliciclib + Olaparib; first compound 0.8 µM)	relative viability (Seliciclib + Olaparib; first compound 2.53 µM)	relative viability (Seliciclib + Olaparib; first compound 8 µM)
H3255	0.555	0.624	0.639	0.471	0.534	0.608	0.667	0.721	0.806	0.587	0.808	1.01	0.51	0.806	0.895	0.545	0.575	0.552	0.518	0.518
EPLC-272H	0.326	0.357	0.274	0.329	0.229	0.968	0.847	0.795	1.04	0.895	0.707	0.72	0.56	0.623	0.494	0.919	0.729	0.667	0.791	0.441
PC-3 [JPC-3]	1.11	1.17	1.08	0.995	0.968	1.02	1.07	0.968	0.997	0.904	1.07	1.09	0.997	0.997	0.809	1.05	1.25	1.06	1.1	0.978
EKVX	0.368	0.37	0.354	0.379	0.472	0.844	0.9	0.799	0.794	0.674		0.887	0.533	0.756	0.77	0.772	1.08	0.749	0.682	0.775
ChaGo-K-1	0.25	0.253	0.264	0.251	0.251						0.877	0.862	0.892	0.979	0.823	0.424	0.464	0.379	0.425	0.359
NCI-H23	0.715	0.72	0.619	0.337	0.489	0.612	0.447	0.603	0.504	0.562	0.977	1.09	0.96	0.88	0.592	0.346	0.31	0.377	0.269	0.262
EMC-BAC-2	0.417	0.476	0.547	0.468	0.508	0.759	0.731	0.739	0.774	0.703	1.02	0.94	0.955	1.02	0.909	0.493	0.494	0.59	0.447	0.446
LOU-NH91		0.394	0.367	0.44	0.393	0.687	0.689	0.661	0.653	0.515	0.9	0.904	0.885	0.905	0.739		0.93	0.891	0.925	0.782
LU99A	0.172	0.211	0.204	0.197	0.188	0.491	0.518	0.452	0.359	0.416	0.83	0.532	0.825	0.717	0.517	0.252	0.264	0.284	0.279	0.278
NCI-H1395	0.932	0.757	0.854		0.756	1.08	0.843	1.04	1.07	1.02	0.974	0.905	0.978	0.995	0.966	0.459	0.422	0.43		0.448
NCI-H460	0.0625	0.0553	0.0625	0.0593	0.0753	0.426	0.485	0.381	0.538	0.385	0.993	1.05	1	1.06	0.882	0.496	0.517	0.472	0.458	0.359
201T	0.379	0.357	0.382	0.27	0.323	1.01	1.02	0.997	0.997	0.966	0.915	1.13	1.07		1.04	0.805	0.834	0.812	0.882	0.805
NCI-H1648	0.767	0.922	0.963	0.675	0.591											1.2	0.968	0.735	0.734	0.397
NCI-H2405	1.05	1.23	1.07	0.825	0.83	0.718	0.698	0.642	0.689	0.729	1.06	1.16	1.07	0.836	0.939	0.88	0.939	0.934	0.739	0.724
NCI-H1703						0.322	0.421	0.288	0.354	0.229	0.352	0.362	0.323	0.298	0.342	0.467	0.54	0.528	0.439	0.352
NCI-H1755	0.385	0.386	0.431	0.419	0.467	0.924	0.946	0.908	0.991	0.892	0.94	0.891	1.02	0.882	0.915	0.882	0.914	0.873	0.885	0.846
NCI-H2087	0.635	0.591	0.673	0.652	0.639	1.08	1.21	1.06	1.09	0.815	1.16	1.05	1.04	1.07	0.816	0.597	0.616	0.38	0.577	0.514
